Numbers after ± are expanded uncertainties.
Test: molar heat capacity at constant volume
Conditions: Liquid, Vacuum adiabatic calorimetry

C=C(F)C(F)(F)F [2,3,3,3-tetrafluoro-1-propene]
Conditions	molar heat capacity at constant volume [J/K/mol]
240.93 K, 2261 kPa	92.26 ± 1.6
241.09 K, 2247 kPa	91.8 ± 1.6
243.43 K, 4295 kPa	92.26 ± 1.6
243.57 K, 4255 kPa	92.26 ± 1.6
245.94 K, 6342 kPa	92.37 ± 1.6
246.04 K, 6272 kPa	92.15 ± 1.6
248.38 K, 8336 kPa	92.72 ± 1.7
248.49 K, 8272 kPa	93.06 ± 1.7
250.77 K, 10288 kPa	93.29 ± 1.7
250.92 K, 10256 kPa	93.4 ± 1.7
255.49 K, 1804 kPa	95.79 ± 1.7
255.68 K, 1821 kPa	96.48 ± 1.7
257.93 K, 3569 kPa	97.51 ± 1.7
258.1 K, 3572 kPa	96.48 ± 1.7
260.34 K, 5312 kPa	97.62 ± 1.7
260.51 K, 5317 kPa	97.16 ± 1.7
262.77 K, 7065 kPa	97.51 ± 1.7
262.92 K, 7055 kPa	98.53 ± 1.8
265.3 K, 8891 kPa	98.65 ± 1.7
265.35 K, 8807 kPa	98.87 ± 1.7
267.77 K, 10554 kPa	98.87 ± 1.8
267.88 K, 10750 kPa	99.22 ± 1.7
270.17 K, 12276 kPa	99.56 ± 1.8
271.12 K, 1842 kPa	101.38 ± 1.8
273.54 K, 1673 kPa	102.07 ± 1.8
273.64 K, 3435 kPa	101.5 ± 1.8
275.98 K, 3181 kPa	102.07 ± 1.8
276.14 K, 5012 kPa	101.27 ± 1.8
278.43 K, 4690 kPa	101.95 ± 1.8
278.65 K, 6595 kPa	102.3 ± 1.8
280.94 K, 6231 kPa	102.64 ± 1.8
281.16 K, 8178 kPa	101.61 ± 1.8
283.46 K, 7781 kPa	102.75 ± 1.8
283.66 K, 9754 kPa	102.52 ± 1.8
285.91 K, 9285 kPa	102.98 ± 1.8
286.19 K, 11346 kPa	103.09 ± 1.7
288.36 K, 10789 kPa	104.01 ± 1.8
289.3 K, 1701 kPa	105.15 ± 1.8
291.52 K, 1716 kPa	105.72 ± 1.8
291.84 K, 3037 kPa	105.49 ± 1.8
294.09 K, 3043 kPa	106.4 ± 1.8
294.38 K, 4378 kPa	105.37 ± 1.8
296.67 K, 4372 kPa	106.4 ± 1.8
296.96 K, 5740 kPa	105.49 ± 1.8
299.24 K, 5702 kPa	106.97 ± 1.8
299.7 K, 7182 kPa	105.94 ± 1.7
301.83 K, 7034 kPa	106.86 ± 1.8
302.46 K, 8635 kPa	106.74 ± 1.8
304.42 K, 8365 kPa	107.54 ± 1.8
305.12 K, 10039 kPa	106.29 ± 1.8
307.01 K, 9699 kPa	108 ± 1.8
307.78 K, 11440 kPa	106.97 ± 1.8
309.61 K, 11035 kPa	108.34 ± 1.8
310.44 K, 12837 kPa	107.54 ± 1.8
312.2 K, 12365 kPa	108.8 ± 1.8
312.59 K, 3164 kPa	108.57 ± 1.8
315.28 K, 1983 kPa	109.37 ± 1.8
315.29 K, 4301 kPa	108.8 ± 1.8
317.99 K, 5437 kPa	108.91 ± 1.8
318.03 K, 3065 kPa	109.71 ± 1.8
320.68 K, 6570 kPa	110.62 ± 1.8
320.8 K, 4151 kPa	110.05 ± 1.8
323.36 K, 7700 kPa	110.28 ± 1.8
323.57 K, 5240 kPa	110.62 ± 1.8
326.04 K, 8827 kPa	110.62 ± 1.8
326.35 K, 6332 kPa	111.42 ± 1.8
328.72 K, 9952 kPa	112.22 ± 1.8
329.14 K, 7427 kPa	112.67 ± 1.8
331.41 K, 11079 kPa	112.9 ± 1.8
331.93 K, 8524 kPa	113.36 ± 1.8
334.09 K, 12201 kPa	113.24 ± 1.8
334.72 K, 9619 kPa	113.47 ± 1.8
337.49 K, 10709 kPa	113.7 ± 1.8
340.26 K, 11796 kPa	114.61 ± 1.8

CCC [propane]
Conditions	molar heat capacity at constant volume [J/K/mol]
236.31 K, 2219 kPa	65.79 ± 1.3
238.69 K, 4211 kPa	66.23 ± 1.3
241.04 K, 6180 kPa	66.67 ± 1.3
243.36 K, 8127 kPa	66.58 ± 1.3
245.69 K, 10074 kPa	66.94 ± 1.3
250.09 K, 2085 kPa	67.6 ± 1.4
252.35 K, 3780 kPa	68.13 ± 1.4
254.59 K, 5476 kPa	68.13 ± 1.4
256.82 K, 7162 kPa	67.91 ± 1.4
259.03 K, 8839 kPa	68.48 ± 1.4
261.25 K, 10512 kPa	68.61 ± 1.4
264.41 K, 2430 kPa	69.1 ± 1.4
266.66 K, 3950 kPa	69.19 ± 1.4
268.92 K, 5488 kPa	70.24 ± 1.4
271.21 K, 7042 kPa	70.33 ± 1.4
273.5 K, 8593 kPa	70.2 ± 1.4
275.81 K, 10155 kPa	70.55 ± 1.4
283.73 K, 2629 kPa	71.61 ± 1.3
284.6 K, 1745 kPa	71.3 ± 1.5
286.92 K, 3057 kPa	71.88 ± 1.5
287.25 K, 4679 kPa	71.92 ± 1.5
289.25 K, 4373 kPa	72.23 ± 1.5
289.61 K, 6040 kPa	71.96 ± 1.4
291.57 K, 5681 kPa	72.32 ± 1.5
291.99 K, 7411 kPa	72.36 ± 1.4
293.9 K, 6981 kPa	72.98 ± 1.5
294.35 K, 8774 kPa	72.85 ± 1.5
296.28 K, 8309 kPa	73.15 ± 1.4
296.69 K, 10124 kPa	72.93 ± 1.5
298.66 K, 9622 kPa	73.2 ± 1.5
299 K, 11450 kPa	73.24 ± 1.5
300.98 K, 10901 kPa	74.35 ± 1.5
301.28 K, 12754 kPa	73.24 ± 1.5
303.33 K, 12177 kPa	74.65 ± 1.5
305.66 K, 13418 kPa	75.09 ± 1.5
306.13 K, 1912 kPa	74.7 ± 1.5
308.58 K, 3022 kPa	75.58 ± 1.5
311.04 K, 4140 kPa	75.62 ± 1.5
313.5 K, 5260 kPa	76.42 ± 1.5
315.96 K, 6379 kPa	76.55 ± 1.5
318.43 K, 7498 kPa	76.59 ± 1.5
320.89 K, 8615 kPa	77.52 ± 1.5
323.37 K, 9735 kPa	77.74 ± 1.5
325.84 K, 10852 kPa	78.18 ± 1.5
328.28 K, 11956 kPa	78.89 ± 1.5
330.71 K, 13052 kPa	79.33 ± 1.5
332.33 K, 10672 kPa	78.89 ± 1.5
334.81 K, 11722 kPa	79.81 ± 1.5
337.26 K, 12761 kPa	80.47 ± 1.5
339.76 K, 13813 kPa	80.65 ± 1.5
